Literature values as cited in PMC6848746 (Psychopharmacology, 2019).
Like-named read-outs stand apart in the source and are kept apart here.

Key:
rats [1] = conditions: MMAI discrimination; ref Marona-Lewicka and Nichols 1994, 1998; cited from earlier work
5-HT2B receptor = conditions: read-out: 5-HT2B receptor Ki, vs. [3H]LSD, cited from earlier work
rats [2] = conditions: ref Bilsky et al. 1990, Marona-Lewicka et al. 1996; cited from earlier work
hDAT [3] = conditions: cited from earlier work
hDAT [4] = conditions: read-out: [125I]RTI-55 binding to hDAT Ki; ref Eshleman et al. 2017; cited from earlier work

In the case of `C[C@H](N)Cc1ccccc1` [(+)-amphetamine, reference compound], the “substitution for MMAI” value (rats [1]) is given as “did not substitute”.

For `CCN[C@@H](C)Cc1cccc(C(F)(F)F)c1` [(+)-fenfluramine, reference compound], the “substitution for MMAI” value (rats [1]) is listed as “fully substituted”.

For `NC1Cc2ccc(I)cc2C1` (stereo not drawn) [5-IAI, 5-iodo-2-aminoindan], the Ki (5-HT2B receptor; ref Iversen et al. (2013)) is listed as 70 nM.

For `CNC(C)Cc1ccc2c(c1)OCO2` (stereo not drawn) [MDMA, 3,4-methylenedioxymethamphetamine, reference compound], the “substitution for MMAI” value (rats [1]) is given as “fully substituted”, the place conditioning effect (rats [2]) is given as “conditioned place preference” and the Ki (5-HT2B receptor; ref Setola et al. 2003) is given as 500 nM.

For `CC[C@@H](Cc1ccc2c(c1)OCO2)NC` [S-(+)-MBDB, S-(+)-N-methyl-1-(1,3-benzodioxol-5-yl)-2-butanamine, reference compound], the “substitution for MMAI” value (rats [1]) is given as “fully substituted”.

In the case of `CN[C@@H](C)Cc1ccccc1` [methamphetamine], the IC50 (hDAT [3]; read-out: [3H]DA uptake inhibition IC50, ref Eshleman et al. 2017) is given as 66.7 nM, the “fold higher potency for [3H]DA uptake inhibition than [125I]RTI-55 displacement” value (hDAT [3]; ref Eshleman et al. 2017) is given as “about 70 fold” and the Ki (hDAT [4]) is given as 4580 nM.

For `COC(=O)[C@H]1[C@@H](OC(=O)c2ccccc2)C[C@@H]2CC[C@H]1N2C` [cocaine, reference compound], the “substitution for MMAI” value (rats [1]) is given as “did not substitute”.

In the case of `CC(N)Cc1ccc2c(c1)OCO2` (stereo not drawn) [MDA], the Ki (5-HT2B receptor; ref Setola et al. 2003) is listed as 100 nM.
